# Assay: in vitro
# Details: for Concentration (μM) of analyte PEA, 0 min / Concentration (μM) of analyte PEA, 10 min / Concentration (μM) of analyte PEA, 20 min / Concentration (μM) of analyte PEA, 30 min / Concentration (μM) of analyte PEA, 60 min / % Remaining of Initial (n = 1), 0 min / % Remaining of Initial (n = 1), 10 min / % Remaining of Initial (n = 1), 20 min / % Remaining of Initial (n = 1), 30 min / % Remaining of Initial (n = 1), 60 min / microsomal CLint at 1 μM / half-life at 1 μM / Concentration, analyte PEA / % Remaining of Initial (n = 1) / microsomal CLint / half-life: both, human; for Concentration (μM) of analyte PEA, 0 min / Concentration (μM) of analyte PEA, 10 min / Concentration (μM) of analyte PEA, 20 min / Concentration (μM) of analyte PEA, 30 min / Concentration (μM) of analyte PEA, 60 min / % Remaining of Initial (n = 1), 0 min / % Remaining of Initial (n = 1), 10 min / % Remaining of Initial (n = 1), 20 min / % Remaining of Initial (n = 1), 30 min / % Remaining of Initial (n = 1), 60 min / Concentration, analyte PEA / % Remaining of Initial (n = 1): 1 μM
# Procedure: The reaction mixture, minus cofactors, was prepared as described below. The test article was added into the reaction mixture at a final concentration of 1 μM. […] An aliquot of the reaction mixture (without cofactor cocktail) was equilibrated in a shaking water bath at 37° C. for 3 minutes. The reaction was initiated by the addition of cofactor cocktail, and the mixture was incubated in a shaking water bath at 37° C. Aliquots (100 μL) were withdrawn at 0, 10, 20, 30, and 60 minutes. All samples were immediately combined with 400 uL of icecold 50/50 acetonitrile/H2O containing 0.1% formic acid and internal standard to terminate the reaction. The samples were then mixed and centrifuged to precipitate proteins. Calibration standards were prepared in matched matrix. All samples and standards were assayed by LC-MS/MS using electrospray ionization for both the dosed prodrug I-9 and the expected drug (PEA). Analytical conditions are outlined in Appendix 4-1. The test article concentration at each time point was compared to the test article concentration at time 0 to determine the percent remaining at each time point. Half-lives were calculated using GraphPad software, fitting to single-phase exponential decay equation.
# (§1) Reaction mixture, minus cofactors, was prepared as described below. Test article was added into the reaction mixture at a final concentration of 1 μM. […] An aliquot of the reaction mixture (without cofactor cocktail) was equilibrated in a shaking water bath at 37° C. for 3 minutes. The reaction was initiated by the addition of cofactor cocktail, and the mixture was incubated in a shaking water bath at 37° C. Aliquots (100 μL) were withdrawn at 0, 10, 20, 30, and 60 minutes. Test article samples were immediately combined with 300 μL of ice-cold acetonitrile containing 1% formic acid. Control samples were immediately combined with 400 μL of ice-cold 50/50 acetonitrile (ACN)/dH2O containing 0.1% formic acid and internal standard to terminate the reaction. Samples were then mixed and centrifuged to precipitate proteins. Calibration standards were prepared in matched matrix. Samples and standards were assayed by LC-MS/MS using electrospray ionization for both the dosed prodrug and the expected drug (PEA). Analytical conditions are outlined in Appendix 8-1. Test article concentration at each time point was compared to test article concentration at time 0 to determine the percent remaining at each time point. Halflives were calculated using GraphPad software, fitting to a single-phase exponential decay equation.
# as §1, with “for 5” for “for 3”, “minutes. Reaction” for “minutes. The reaction”, “and” for “and the”, “both” for “both the”, “Appendix 10-1.” for “Appendix 8-1.”
# Reaction mixture, minus cofactors, was prepared as described below.
SMILES,"Concentration (μM) of analyte PEA, 0 min (0 min) [µM]","Concentration (μM) of analyte PEA, 10 min (10 min) [µM]","Concentration (μM) of analyte PEA, 20 min (20 min) [µM]","Concentration (μM) of analyte PEA, 30 min (30 min) [µM]","Concentration (μM) of analyte PEA, 60 min (60 min) [µM]","% Remaining of Initial (n = 1), 0 min (s9, 0 h) [%]","% Remaining of Initial (n = 1), 10 min (s9, 10 min) [%]","% Remaining of Initial (n = 1), 20 min (s9, 20 min) [%]","% Remaining of Initial (n = 1), 30 min (s9, 0.5 h) [%]","% Remaining of Initial (n = 1), 60 min (s9, 1 h) [%]","microsomal CLint at 1 μM (s9, CLint (mL/min/mg protein)) [µL/min/mg]","half-life at 1 μM (s9, Half-life (min)) [h]",other results
CCCCCCCCCCCCCCCC(=O)NCCOC(=O)CCC [Compound I-2],0.011,0.057,0.075,0.067,0.11,100,73,41,28,9.6,–,–,–
"CCCCCCCCCCCCCCCC(=O)NCCOC(=O)CCC(=O)OCC(COC(=O)CCCCCCC)OC(=O)CCCCCCC (stereo not shown) [Compound I-3, PEA-Succinate-Glycerol-Di-Caprylic]",0,0.0027,0.025,0.034,0.048,100,76,86,83,60,< 11.6,> 1,–
CCCCC/C=C\C/C=C\CCCCCCCC(=O)OCCNC(=O)CCCCCCCCCCCCCCC [Compound I-6],0.0089,0.023,0.043,0.056,0.072,100,109,103,82,70,< 11.6,> 1,"microsomal CLint at 1 μM (s9, CLint (mL/min/mg protein), calculated value in parentheses): 6.82 µL/min/mg; half-life at 1 μM (s9, Half-life (min), calculated half-life in parentheses): 1.7 h"
CCCCCCCCCCCCCCCC(=O)NCCOC(=O)CCC(=O)OC[C@H]1O[C@@](CO)(O[C@H]2O[C@H](CO)[C@@H](O)[C@H](O)[C@H]2O)[C@@H](O)[C@@H]1O [Compound I-7],0.090,0.46,0.62,0.63,0.48,100,46,22,9.8,3.8,–,–,–
CCCCC/C=C\C/C=C\CCCCCCCC(=O)OCC(COC(=O)CCC(=O)OCCNC(=O)CCCCCCCCCCCCCCC)OC(=O)CCCCCCC/C=C\C/C=C\CCCCC (stereo not shown) [Compound I-13],–,–,–,–,–,–,–,–,–,–,–,–,"Concentration, analyte PEA (0 min): 0 nM; Concentration, analyte PEA (10 min): 10 nM; Concentration, analyte PEA (20 min): 14 nM; Concentration, analyte PEA (30 min): 18 nM; Concentration, analyte PEA (60 min): 31 nM; % Remaining of Initial (n = 1) (s9, 0 h): 100%; % Remaining of Initial (n = 1) (s9, 10 min): 86%; % Remaining of Initial (n = 1) (s9, 20 min): 86%; % Remaining of Initial (n = 1) (s9, 0.5 h): 86%; % Remaining of Initial (n = 1) (s9, 1 h): 59%; microsomal CLint at 1 μM (s9, CLint): < 11.6 µL/min/mg; microsomal CLint at 1 μM (s9, CLint, calculated (in parentheses)): 7.57 µL/min/mg; half-life at 1 μM (s9, Half-life): > 1 h; half-life at 1 μM (s9, Half-life, calculated (in parentheses)): 1.53 h"
"C[C@]12CC[C@H]3[C@@H](CCC4=CC(=O)CC[C@@]43C)[C@@H]1CC[C@@H]2O [Testosterone, testosterone, reference compound]",–,–,–,–,–,–,–,–,–,–,–,–,"microsomal CLint (s9, CLint, Control Compound, Human intestinal S9 fraction): 50.9 µL/min/mg; microsomal CLint (s9, CLint, Human intestinal S9 fraction, control compound): 50.9 µL/min/mg; microsomal CLint (s9, Clint, control compound, Example 4 control run): 26.9 µL/min/mg; half-life (s9, Half-life (min), control compound, human intestinal S9 fraction): 0.13 h; half-life (s9, Half-life, control compound, Example 4 control run): 0.433 h; half-life (s9, Half-life, control compound, human intestinal S9 fraction): 0.08 h; CLin (control compound, human intestinal S9 fraction): 0.144 ml/min/mg protein"

# From US11547681B2, “N-acylethanolamide derivatives and uses thereof” (ELIEM THERAPEUTICS, INC., priority 2016, dated 2023)
